This note sets out measurements from US20100233194A1, “TREATMENT OF NEOVASCULAR OCULAR DISEASE STATES” (priority 2007, published 2010).

SMILES strings stand for the structures.

The assay concerns VEGF-induced retinal vascular leakage. The assay is described as follows: VEGF-induced vascular leakage in a rabbit model of blood-retinal barrier breakdown (ocular fluorophotometry). Particulars: for Inhibition of retinal vascular leakage: single intravitreal injection Day 0, 500 ng rhVEGF165 Day 5, fluorophotometry Day 7, rabbit.

In the case of `CC1(C)O[C@@H]2C[C@H]3[C@@H]4CCC5=CC(=O)C=C[C@]5(C)[C@@]4(F)[C@@H](O)C[C@]3(C)[C@]2(C(=O)CO)O1` [TA, triamcinolone acetonide], the “Inhibition of retinal vascular leakage” value is, setting by setting: (TA 75 μg) 13%; (TA 400 μg) 96%. Also, for the setting “separate study, TA 75 μg alone”, the “inhibition of the VEGF-induced retinal vascular leakage” value amounted to 10%.
